These results are taken from US4636563A, “Antipsychotic γ-carbolines” (American Home Products Corporation, priority 1985, dated 1987).

Each structure is given as a SMILES string.

For test [1], the system named is conditioned avoidance responding (shelf-jump). The experiment in a line: Conditioned avoidance, shelf-jump response (S-J). The format is in vivo, male CD rats. The source says:
(§1) The antipsychotic properties of the compounds of this invention were established by standard pharmacologically accepted procedures involving two conditioned avoidance studies in which trained male CD rats (Charles River), 400-450 gm body weight are exposed to a fifteen second warning tone (conditioned stimulus) continued for an additional fifteen seconds accompanied by electric shock. The rat can avoid the electric shock by depression of a response lever (lever-response) or in a different study by jumping to an exposed shelf (shelf-jump response). In either test situation, a response during the initial warning tone is considered an avoidance response while a response during shock delivery is considered an escape response. The avoidance response is determined and expressed as a percentage of total trials from an appropriate number of trials and a 50% block in avoidance responding (AB50) is obtained from a dose-effect regression line. The shelf-jump response test procedure follows that of Herman et al., Comm. in Psychopharm., 3, pp. 165-171 (1979).
(§2) The following examples illustrate the production of compounds of this invention. After each example the pharmacological evaluation for the compound produced is presented. The conditioned avoidance tests are reported as relative activity for the shelf-jump (S-J) at the intraperitoneal (i.p.) dose administered in mg/kg and the AB50 is presented for the lever-response (L-R) test at the oral (p.o.) dose in mg/kg. The inhibition constant is reported for limbic D-2 binding expressed in nM concentration. Similarly, the inhibition constant for cortical 5-HT2 binding is reported as the inhibition constant in nM concentration.

Test [2] relates to conditioned avoidance responding (lever-response). Kind of test: Conditioned avoidance, lever-response (L-R). The class given is in vivo, male CD rats. Conditions: Rattus norvegicus, po; 95% confidence interval in brackets; read-out: L-R AB50 (50% block in avoidance responding).
Source text: as §1, §2

A further test deals with T1, serotonin-2 receptors (Rattus norvegicus, UniProt P14842).
T1 construct: In an analogous test procedure employing brain cortical tissue; from tissue; host or cells: brain cortical tissue
T1 sequence (P14842 whole entry): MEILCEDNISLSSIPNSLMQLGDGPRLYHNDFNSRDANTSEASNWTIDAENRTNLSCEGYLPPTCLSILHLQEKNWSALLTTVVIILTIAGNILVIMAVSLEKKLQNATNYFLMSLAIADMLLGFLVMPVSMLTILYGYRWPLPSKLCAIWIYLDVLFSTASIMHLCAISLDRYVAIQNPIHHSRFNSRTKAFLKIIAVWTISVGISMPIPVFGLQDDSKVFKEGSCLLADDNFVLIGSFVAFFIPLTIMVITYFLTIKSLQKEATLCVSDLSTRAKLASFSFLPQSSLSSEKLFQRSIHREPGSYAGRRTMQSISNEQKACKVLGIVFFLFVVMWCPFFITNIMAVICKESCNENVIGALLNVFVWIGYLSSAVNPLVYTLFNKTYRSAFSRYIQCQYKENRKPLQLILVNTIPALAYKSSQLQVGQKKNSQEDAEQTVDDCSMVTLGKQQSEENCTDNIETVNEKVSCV
Kind of test: Cortical 5-HT2 binding (brain cortical tissue). To be noted: for Ki: 95% confidence interval in brackets, read-out: Cortical 5-HT2 inhibition constant (Ki).
Source text: as §2

For test [3], the target named is T2, limbic D-2 (dopamine receptor) (Rattus norvegicus, UniProt P61169).
T2 construct: from tissue; host or cells: homogenized limbic brain tissue
T2 sequence (P61169 whole entry): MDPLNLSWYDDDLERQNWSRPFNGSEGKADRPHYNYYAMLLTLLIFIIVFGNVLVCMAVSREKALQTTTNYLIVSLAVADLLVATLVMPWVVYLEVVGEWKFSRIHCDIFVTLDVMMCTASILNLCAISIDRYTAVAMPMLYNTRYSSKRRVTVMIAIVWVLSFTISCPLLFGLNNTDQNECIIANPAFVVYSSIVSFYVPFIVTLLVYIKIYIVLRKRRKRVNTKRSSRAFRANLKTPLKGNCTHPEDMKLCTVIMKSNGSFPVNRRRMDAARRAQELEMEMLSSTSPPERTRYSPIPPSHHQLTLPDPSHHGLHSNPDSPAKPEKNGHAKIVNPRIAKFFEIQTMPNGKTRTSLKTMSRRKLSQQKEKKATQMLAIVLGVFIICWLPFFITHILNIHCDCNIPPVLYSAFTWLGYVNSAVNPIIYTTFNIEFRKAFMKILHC
Kind of test: Limbic D-2 binding (3H-spiroperidol, homogenized limbic brain tissue). Conditions: 95% confidence interval in brackets, read-out: Limbic D-2 inhibition constant (Ki). The method, then: Binding in the presence of the test compound is expressed as a percent of specific binding (total binding less binding in the presence of 1 μM (+)butaclamol). An inhibition constant (Ki) is calculated for each test compound to catagorize its limbic D-2 binding potential. The larger the number, the less potential for dopamine receptor binding and attendant side effects from administration of the antipsychotic agent.
as §2

Regarding `Clc1ccc2[nH]c3c(c2c1)CN(CCc1ccccn1)CC3` [Example 9, 8-Chloro-2,3,4,5-tetrahydro-2-[2-(2-pyridinyl)ethyl]-1H-pyrido[4,3-b]indole], the S-J relative activity result in test [1] (40 mg/kg i.p.) is “Active”. The ED50 in test [2] is greater than 40 mg/kg.
On to `c1ccc2nc(CCN3CCc4[nH]c5ccccc5c4C3)ccc2c1` [Example 5, 2,3,4,5-Tetrahydro-2-[2-(2-quinolinyl)ethyl]-1H-pyrido[4,3-b]indole], for which the S-J relative activity result in test [1] (40 mg/kg i.p.) is listed as “Active”.
Consider `Fc1ccc2[nH]c3c(c2c1)CN(CCc1ccncc1)CC3` [Example 3, 8-Fluoro-2,3,4,5-tetrahydro-2-[2-(4-pyridinyl)ethyl]1H-pyrido[4,3-b]indole], for which, on serotonin-2 receptors, the inhibition constant Ki was found to be 0.211 µM.
For `Fc1ccc2[nH]c3c(c2c1)CN(CCc1ccccn1)CC3` [Example 2, 8-Fluoro-2,3,4,5-tetrahydro-2-[2-(2-pyridinyl)ethyl]-1H-pyrido[4,3-b]indole], the inhibition constant (Ki) stood at 0.173 µM at serotonin-2 receptors and 0.026 µM in test [3]. In test [1] (20 mg/kg i.p.), the S-J relative activity result is “Active”. For the same compound, in test [2], the ED50 stood at 37.6 mg/kg.
For the compound `Fc1ccc2[nH]c3c(c2c1)CN(CCCCc1ccncc1)CC3` [Example 1, 8-Fluoro-2,3,4,5-tetrahydro-2-[4-(4-pyridinyl)butyl]-1H-pyrido[4,3-b]-indole], the inhibition constant Ki at serotonin-2 receptors was 0.48 µM; in test [3], 0.143 µM. Moreover, the S-J relative activity result in test [1] (20 mg/kg i.p.) is recorded as “Active”. The ED50 in test [2] came to 15.1 mg/kg.
Turning to `c1cncc(CCCN2CCc3[nH]c4ccccc4c3C2)c1` [Example 7, 2,3,4,5-Tetrahydro-2-[3-(3-pyridinyl)propyl]-1H-pyrido[4,3-b]indole], the Ki at serotonin-2 receptors turned out to be 0.252 µM. In addition, the S-J relative activity result in test [1] (40 mg/kg i.p.) is given as “Active”. In addition, in test [2], the ED50 is 33.1 mg/kg.
Regarding `Clc1ccc2[nH]c3c(c2c1)CN(CCCc1ccccn1)CC3` [Example 12, 8-Chloro-2,3,4,5-tetrahydro-2-[3-(2-pyridinyl)-propyl]-1H-pyrido[4,3-b]indole], the Ki on serotonin-2 receptors came out at 0.028 µM; in test [3], 0.126 µM. Moreover, the S-J relative activity entry in test [1] (40 mg/kg i.p.) is recorded as “Active”. Further, the ED50 in test [2] was greater than 40 mg/kg.
In the case of `Clc1ccc2[nH]c3c(c2c1)CN(CCc1ccc2ccccc2n1)CC3` [Example 10, 8-Chloro-2,3,4,5-tetrahydro-2-[2-(2-quinolinyl)ethyl]-1H-pyrido-[4,3-b]indole], in test [1] (40 mg/kg i.p.), the S-J relative activity entry was “Active”. The Ki in test [3] came out at 0.082 µM. The ED50 in test [2] was greater than 40 mg/kg.
As to `Fc1ccc2[nH]c3c(c2c1)CN(CCCc1cccnc1)CC3` [Example 11, 8-Fluoro-2,3,4,5-tetrahydro-2-[3-(3-pyridinyl)propyl]1H-pyrido[4,3-b]indole], the Ki at serotonin-2 receptors was determined as 0.136 µM; in test [3], 0.395 µM. For the same compound, in test [1] (20 mg/kg i.p.), the S-J relative activity entry is “Active”. The ED50 in test [2] turned out to be 14.4 mg/kg.
With `Clc1ccc2[nH]c3c(c2c1)CN(CCCCc1ccncc1)CC3` [Example 8, 8-Chloro-2,3,4,5-tetrahydro-2-[4-(4-pyridinyl)butyl]-1H-pyrido[4,3-b]indole], the values for the Ki (at serotonin-2 receptors; in test [3]) were 0.06 µM and 0.106 µM, respectively. The S-J relative activity result in test [1] (40 mg/kg i.p.) is listed as “Active”. In addition, the ED50 in test [2] worked out at 36.1 mg/kg.
In the case of `c1ccc2c3c([nH]c2c1)CCN(CCCCc1ccncc1)C3` [Example 6, 2,3,4,5-Tetrahydro-2-[4-(4-pyridinyl)butyl]-1H-pyrido[4,3-b]indole], the S-J relative activity result in test [1] (20 mg/kg i.p.) and in test [1] (40 mg/kg i.p.) was “Active” each time. Further, the ED50 in test [2] is greater than 20 mg/kg.
In the case of `Fc1ccc2[nH]c3c(c2c1)CN(CCc1ccc2ccccc2n1)CC3` [Example 4, 8-Fluoro-2,3,4,5-tetrahydro-2-[2-(2-quinolinyl)ethyl]-1H-pyrido[4-3-b]indole], in test [1] (20 mg/kg i.p.), the S-J relative activity entry was “Active”. In addition, the inhibition constant Ki in test [3] amounted to 0.185 µM.
As to `NCCc1ccc(O)c(O)c1` [dopamine, reference compound], on serotonin-2 receptors (reference ligands), the “Ki at serotonin-2 receptors” value was “inactive”.

A word on the Ki: it is a dissociation constant, usually derived from enzyme kinetics or from competition with a known ligand.
